Results on 6 molecules are retold here after ChEMBL document CHEMBL1149308, “4-{(2R)-[3-Aminopropionylamido]-3-(2,4-dichlorophenyl)propionyl}-1-{2-[(2-thienyl)ethylaminomethyl]phenyl}piperazine as a potent and selective melanocortin-4 receptor antagonist--design, synthesis, and characterization” (J Med Chem, 2004).

As usually defined, the inhibition is how much of the control response was suppressed. Broadly, the EC50 is the concentration at which the effect is half-maximal. A higher EC50 goes with lower potency in that assay. For orientation: Ki means the dissociation constant of the complex between target and ligand, obtained from inhibition or displacement. Low values mean a stronger hold on the target, high ones a looser hold on the target. The logD is lipophilicity at a set pH, counting ionised and neutral species. Low values mean a more hydrophilic compound, high ones a more lipophilic compound. By clearance is commonly meant the rate of elimination divided by the concentration. Broadly, the half-life is how long it takes for the measured level to halve. Low readings indicate rapid decline, high ones slow decline. In general, Kp refers to tissue or fluid exposure divided by exposure in the circulation. As usually defined, the Tmax is the time from dosing to the highest level. As a reminder, the Cmax is the highest concentration seen after dosing. The AUC is concentration integrated over time. Lower therefore signals low exposure. One may read the CLint scaled as the capacity of the preparation to metabolise the compound, expressed as a volume cleared per time. High values mean rapid turnover, low ones slow turnover. Usually bioavailability stands for the share of a dose that reaches the circulation, judged against a reference dose that is usually intravenous. A low value points to poor availability.

The target in series [1] is T1, Melanocyte-stimulating hormone receptor (Homo sapiens, UniProt Q01726). Briefly: Inhibition of human MC1 receptor expressed in HEK293 cells at 10 uM. It is filed as cell-based.
Target sequence in this assay (Q01726 whole entry, looked up): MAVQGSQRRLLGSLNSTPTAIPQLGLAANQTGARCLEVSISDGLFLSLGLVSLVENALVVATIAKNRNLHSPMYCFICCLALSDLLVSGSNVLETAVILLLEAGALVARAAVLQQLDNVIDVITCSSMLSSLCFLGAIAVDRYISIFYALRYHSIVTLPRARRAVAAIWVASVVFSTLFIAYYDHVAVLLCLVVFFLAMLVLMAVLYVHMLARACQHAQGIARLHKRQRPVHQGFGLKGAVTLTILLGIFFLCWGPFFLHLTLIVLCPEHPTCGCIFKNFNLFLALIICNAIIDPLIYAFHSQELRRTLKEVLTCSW
Series [2] has as its target T2, Melanocortin receptor 3 (Homo sapiens, UniProt P41968). The series is described as follows: Inhibition of human MC3 receptor expressed in HEK293 cells at 10 uM. It is filed as cell-based.
In series [3] the target is T3, Melanocortin receptor 4 (Homo sapiens, UniProt P32245).
T3 sequence (P32245 whole entry): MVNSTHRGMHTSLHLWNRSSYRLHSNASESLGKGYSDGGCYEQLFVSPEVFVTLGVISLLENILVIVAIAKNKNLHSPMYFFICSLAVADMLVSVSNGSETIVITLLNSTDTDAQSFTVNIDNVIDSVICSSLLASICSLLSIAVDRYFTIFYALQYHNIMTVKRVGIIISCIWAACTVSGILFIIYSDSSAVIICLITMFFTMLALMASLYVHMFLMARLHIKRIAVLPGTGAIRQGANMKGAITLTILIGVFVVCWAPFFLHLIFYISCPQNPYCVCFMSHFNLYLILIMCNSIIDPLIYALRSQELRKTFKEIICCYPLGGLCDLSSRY
Description: Agonist activity at human MC4 receptor expressed in HEK293 cells assessed as stimulation of cAMP production
Series [4] concerns the target T3, Melanocortin receptor 4. Briefly: Antagonist activity at human MC4 receptor expressed in HEK293 cells assessed as inhibition of alpha-MSH-stimulated cAMP production. Conditions: read-out: pA2 (converted). It is filed as functional, cell-based. (Cyclic AMP is a second messenger, typically raised through Gs and lowered through Gi signalling.)
Series [5] has as its target T1, Melanocyte-stimulating hormone receptor. It is filed as cell-based, HEK293.
Target sequence in this assay (Q01726 whole entry): as the sequence (Q01726 whole entry, looked up) above
Series [6] addresses T2, Melanocortin receptor 3. It is filed as cell-based, HEK293.
Series [7] concerns the target Melanocortin receptor 5 (Homo sapiens, UniProt P33032). It is filed as cell-based, HEK293.
The nature of series [8]: Distribution coefficient, log D at pH 7.4. It is filed as physicochemical. The conditions noted are these: octanol/water.
Series [9] is described as follows: Clearance in rat at 10 mg/kg, iv. It is filed as ADME, organism-based. Also noted: dose 10 mg/kg, route intravenous. Conditions: in vivo.
Series [10] in a line: Volume of distribution in rat at 10 mg/kg, iv. It is filed as ADME, organism-based. Also noted: dose 10 mg/kg, route intravenous. The conditions noted are these: in vivo, read-out: Vdss.
A short description of series [11]: Half life in rat at 10 mg/kg, iv. It is filed as ADME, organism-based. Conditions: in vivo. Also noted: dose 10 mg/kg, route intravenous.
The nature of series [12]: Concentration in rat brain at 2 mg/kg, iv after […]. Also noted: dose 2 mg/kg, route intravenous. The conditions noted are these: read-out: Drug uptake. It is filed as ADME, organism-based.
A short description of series [13]: Plasma concentration in rat at 2 mg/kg, iv after […]. It is filed as ADME, organism-based. Also noted: dose 2 mg/kg, route intravenous.
The nature of series [14]: Ratio of drug level in brain to plasma of rat at 2 mg/kg, iv after […]. It is filed as ADME, organism-based. Also noted: dose 2 mg/kg, route intravenous.
Series [15] is described as follows: Tmax in rat at 10 mg/kg, po. It is filed as ADME, organism-based. Also noted: dose 10 mg/kg, route oral. The conditions noted are these: in vivo.
Series [16] in a line: Cmax in rat at 10 mg/kg, po. Also noted: dose 10 mg/kg, route oral. Conditions: in vivo. It is filed as ADME, organism-based.
Series [17] in a line: AUC in rat at 10 mg/kg, po. It is filed as ADME, organism-based. Also noted: dose 10 mg/kg, route oral. Conditions: plasma.
Series [18] can be described thus: Intrinsic clearance in human liver microsomes. It is filed as ADME, Microsome. Background: Microsomes from liver hold many membrane-bound enzymes, among them those of drug oxidation.
The nature of series [19]: Oral bioavailability in rat at 10 mg/kg, po. It is filed as ADME, organism-based. Conditions: in vivo.
Series [20] addresses T3, Melanocortin receptor 4. The source holds these as a separate data set.
Description: (§1) Displacement of [125]NDP-MSH from human MC4 receptor expressed in HEK293 cells
Series [21] has as its target T3, Melanocortin receptor 4. Briefly: biochemical.
Description: as §1
The target of series [22] is T3, Melanocortin receptor 4. Conditions: HEK293.
Description: as §1

Each structure is given as a SMILES string. Active and inactive are the calls of the source. The rule behind the calls is not given here.

T2 sequence (P41968 whole entry): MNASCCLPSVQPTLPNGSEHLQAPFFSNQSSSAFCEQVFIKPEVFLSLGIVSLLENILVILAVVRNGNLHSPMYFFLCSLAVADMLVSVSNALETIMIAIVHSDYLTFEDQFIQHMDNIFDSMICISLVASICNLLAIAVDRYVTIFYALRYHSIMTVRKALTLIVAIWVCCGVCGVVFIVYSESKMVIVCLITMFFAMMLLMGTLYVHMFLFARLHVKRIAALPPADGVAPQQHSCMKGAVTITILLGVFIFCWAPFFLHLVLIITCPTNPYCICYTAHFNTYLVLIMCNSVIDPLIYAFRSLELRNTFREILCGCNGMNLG
Melanocortin receptor 5, sequence (P33032 whole entry): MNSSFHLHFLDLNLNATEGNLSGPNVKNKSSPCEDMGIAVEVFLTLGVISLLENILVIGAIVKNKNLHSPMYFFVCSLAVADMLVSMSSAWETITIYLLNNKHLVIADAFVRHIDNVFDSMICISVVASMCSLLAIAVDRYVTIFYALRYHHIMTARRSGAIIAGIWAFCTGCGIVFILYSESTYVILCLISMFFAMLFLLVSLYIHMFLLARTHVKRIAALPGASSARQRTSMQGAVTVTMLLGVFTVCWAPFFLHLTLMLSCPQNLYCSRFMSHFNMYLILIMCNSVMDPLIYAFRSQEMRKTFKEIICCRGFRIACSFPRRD

Take `NCc1ccccc1N1CCN(C(=O)[C@@H](Cc2ccc(Cl)cc2)NC(=O)[C@H]2Cc3ccccc3CN2)CC1`: the inhibition was 27% in series [1] and 34% in series [2]. Besides, the EC50 in series [3] was 890 nM (agonist).

In the case of `NCCC(=O)N[C@H](Cc1ccc(Cl)cc1Cl)C(=O)N1CCN(c2ccccc2CNCCc2cccs2)CC1`, in series [4], the Kb is on record as 12.6 nM (antagonist). Also, the Ki in series [5] is 4200 nM (antagonist); in series [6], 640 nM (antagonist); in series [7], 280 nM (antagonist); in series [20], 1.8 nM (antagonist). The logD in series [8] worked out at 1.1. Moreover, in series [9], the clearance was 24 mL/min/kg. Also, the Vd in [10] was determined as 9.5 L/kg. In addition, the half-life in series [11] is 4.6 h. Besides, the figures for the concentration at […] in series [12] and in series [13] were 75 ng/g and 71 ng/mL, respectively. Also, the Kp at […] in series [14] amounted to 1. For the same molecule, the Tmax in [15] is 0.5 h. The same molecule showed a Cmax in series [16] of 18 ng/mL. The molecule further came in with an AUC in [17] of 51 ng·h/mL. This molecule also displayed a CLint scaled in series [18] of 23 mL/min/kg. In series [19], this molecule returned a bioavailability of 1%.

Regarding `Cn1nnc(CC2(C3CCCCC3)CCN(C(=O)[C@@H](Cc3ccc(Cl)cc3)NC(=O)[C@H]3Cc4ccccc4CN3)CC2)n1`, the Ki in [21] was 1.2 nM (antagonist).

Regarding `NCCC(=O)N[C@H](Cc1ccc(Cl)cc1)C(=O)N1CCN(c2ccccc2CNCCc2cccs2)CC1`, the Ki in series [6] is 1400 nM (antagonist).

Consider `CS(=O)(=O)N1CC2(CCN(C(=O)[C@@H](Cc3ccccc3)NC(=O)[C@@H](N)Cc3c[nH]cn3)CC2)c2ccccc21`, for which the result in [22] was inactive.

For the molecule `NCC(=O)N[C@H](Cc1ccc(Cl)cc1)C(=O)N1CCN(c2ccccc2CNCCc2cccs2)CC1`, the EC50 in series [3] is recorded as 580 nM (agonist).
